# Where two headings read alike, the source gives them in different places.
# Columns and labels:
# beagle dogs [1] = experiment: Electrocardiography in the 13-week repeated-dose dog study; format: in vivo; details: for Heart rate: 6 mg kg^-1 per day (ART p.o., ARM i.m.), vs control group
# Experimental: (§1) The first day of treatment was regarded as day one in the study. […] Oral administration was performed about 2 h after feeding. ARM was administered by a bolus intramuscular infusion through a 25-gauge needle at a constant volume of 2 ml kg^−1 once a day into the gluteal and infraspinous muscles. Two dogs of each sex from each group were allowed to recover without further treatment for an additional 4 weeks.
# Electrocardiograms were recorded using an Auto Electrocardiogram (ECG-9130P, Nihon Kohden Corporation, Japan). Recordings were taken from each dog, while conscious, every 2 weeks from week-1. Leads I, II, III, aVR, aVL and aVF were utilized. The electrocardiography (ECG) parameters included heart rate, PR, QRS and QT interval, and QRS and T wave amplitudes. As the PQ and QT intervals vary with heart rate, they were adjusted to an RR-interval of 500 ms, corresponding to a heart rate of 120 bpm using the following equation: QT500 = QT – 0.084×(RR – 500).
# Rats [2] = system: Rats; set-up: method as in Xiao et al. (2002) [31]; details: cited from earlier work
# [3] = set-up: method as in PMID 11060779; details: cited from earlier work
# [4] = Toxicokinetic analysis of plasma drug levels (HPLC); format: in vivo, dog; details: for AUC: 6 mg kg^−1 daily, ART p.o.; for maximum plasma concentration after dosing: daily i.m. 6 mg kg^−1
# Experimental: as §1
# For toxicokinetic analysis, blood samples were collected on weeks 1, 2, 4, 8 and 13 at 0 (before dosing), 0.5, 1, 2, 4, 8, 12 and 24 h after dosing. Approximately 1 ml blood was drawn from the antebrachial, cephalic or jugular vein of three animals of each sex per time point and deposited into heparinized tubes for immediate centrifugation at 3000 rpm at 4°C for 10 min. The plasma was then immediately transferred to 2 ml polypropylene tubes and stored on dry ice. Samples were stored at −80°C until HPLC analysis.
# beagle dogs [5] = experiment: Hematology in the 13-week repeated-dose dog study; format: in vivo
# Experimental: as §1
# (§2) Blood samples were collected from the femoral vein of each dog prior to treatment and every 2 weeks after the first day of treatment. Hematology parameters were measured using an automated hematology analyzer (Sysmex, XT-2000iv, Toa Medical Electronics Co. Ltd., Kobe, Japan) using standard methods. Test parameters included hemoglobin (Hb) levels, the hematocrit (Hct) fraction, erythrocyte (RBC) count, leukocyte (WBC) count, neutrophilic granulocyte fraction (NE%), monocyte fraction (MO%), lymphocyte levels (LY%), platelet count (PLT), reticulocyte count (RET%) and RBC morphology. The following clinical chemistry parameters were measured using a Hitachi-7180 Chemistry Analyzer (High-Technologies Corporation, Tokyo, Japan) and standard methods: glucose, blood urea nitrogen, inorganic phosphorus, creatinine, total protein, albumin, calcium, aspartate aminotransferase (AST), alanine aminotransferase, alkaline phosphatase, total bilirubin, creatine kinase (CK), sodium, potassium and chloride.
# The differential granulocytic and erythrocytic series (erythroid, myeloid blast cell count and the red ratio) were determined manually from blood smears.
# beagle dogs [6] = experiment: Clinical chemistry in the 13-week repeated-dose dog study; format: in vivo
# Experimental: as §1, §2
# Rats [7] = system: Rats; set-up: method as in Akinlolu and Shokunbi, 2008 [41]; details: 25 mg kg^−1 per day, i.m. for 7 days, ref Akinlolu and Shokunbi, 2008 [41]; cited from earlier work
# beagle dogs [8] = experiment: Clinical observations; format: in vivo
# Experimental: as §1
# All dogs were assessed once daily for mortality and toxicological or other clinical signs, including behavioral changes (such as tremor, gait impairment, balance disturbance and auditory impairment), appetite, excreta (urinalysis for specific gravity, ketone bodies and pH), balance and coordination. Standard and acceptable veterinary health care practices were used during this evaluation to ensure good health of the animals.
# beagle dogs [9] = experiment: Organ weights at necropsy; format: in vivo, dog
# Experimental: as §1
# Termination of treatment was scheduled to occur on weeks 4, 8 (two interim necropsies) and 13, followed by a 4-week recovery period. For pathological examinations, the animals were euthanized within 24 h of the final drug administration with sodium pentobarbital, followed by exsanguination via the femoral artery. A gross necropsy was performed, including a thorough visual examination of all the internal organs. Weights were obtained for the brain, heart, liver, spleen, lung, kidneys, adrenals, thyroid/parathyroids, thymus, pancreas and ovaries/testes/prostate, and organ-to-body weight ratios were calculated. For each animal, representative samples from approximately 48 organs and tissues were taken and fixed in neutral buffered 10% formalin, except for the sternum, which was retained in Helly’s fixative (1000 ml distilled water, 25 g potassium dichromate, 10 g sodium sulfate, 50 g mercuric chloride, 50 ml 40% formaldehyde). […]
# Mouse = system: Mouse; set-up: method as in Nontprasert et al., 2000 [42]; details: 300 mg kg^−1 per day, p.o. for 28 days, ref Nontprasert et al., 2000 [42]; cited from earlier work
# [10] = oral 80 and 400 mg kg^−1 once every 2 weeks for 5 months, ref Xiao et al. (2002) [31]
# [11] = oral high dose of 400 mg kg^−1, ref Xiao et al. (2002) [31]
# [12] = week 2 until week 10 post-treatment, vs control groups (p<0.05)
# [13] = weeks 4 and 6 post-treatment, vs control group (p<0.01)
structure (smiles),measurement,setting,value
"CO[C@H]1O[C@@H]2O[C@@]3(C)CC[C@H]4[C@H](C)CC[C@@H]([C@H]1C)[C@@]24OO3 [ARM, artemether]",Heart rate,beagle dogs [1]; Week 4,- (“-” = No effect)
same,Heart rate,beagle dogs [1]; Week 8,- (“-” = No effect)
same,Heart rate,beagle dogs [1]; Week 13,- (“-” = No effect)
same,"mean QT intervals (adjusted for heart rate, QT500)","beagle dogs [1]; week 3 until the final drug treatment, male and female dogs, vs vehicle control",prolonged
same,Hb levels,Rats [2]; [10],reversible increase
same,QT interval,Rats [2]; [10],No changes
same,reticulocyte count,Rats [2]; [10],reversible reduction
same,liver finding,Rats [2]; [11],transient focal vesicle degeneration of the liver
same,neuropathological alterations,Rats [2]; [11],no evidence of neuropathological alterations
same,solubility character,[3],fat soluble
same,AUC,"[4]; both sexes, beagle, dog, plasma, other: ART p.o., ARM i.m., 6 mg/kg, week 8, ARM i.m., dog plasma, read-out: AUC8w",10.9 ± 11.6 ng·h/mL
same,AUC,"[4]; both sexes, beagle, dog, plasma, other: ART p.o., ARM i.m., 6 mg/kg, week four, ARM i.m., dog plasma, read-out: AUC4w",739 ± 209 ng·h/mL
same,AUC(0-t),"[4]; both sexes, beagle, dog, plasma, other: ART p.o., ARM i.m., 6 mg/kg, read-out: AUC93D",71.3 ± 56.6 ng·h/mL
same,Cmax,"[4]; both sexes, beagle, im, week four, 6 mg kg^−1 daily i.m., dog plasma, read-out: C max, w4",219 ± 41.3 ng/mL
same,half-life,"[4]; both sexes, beagle, im, week four, 6 mg kg^−1 daily i.m., dog plasma, read-out: T 1/2, w4 (biological half-life) (converted)",3 ± 1.16 h
same,Tmax,"[4]; both sexes, beagle, im, week four, 6 mg kg^−1 daily i.m., dog plasma, read-out: T max, w4",0.5 ± 0.03 h
same,maximum plasma concentration after dosing,[4]; day 1,90.63 ± 24.99 µg/L
same,maximum plasma concentration after dosing,[4]; week 4,219.10 ± 41.30 µg/L
same,maximum plasma concentration after dosing,[4]; week 8,46.20 ± 13.15 µg/L
same,maximum plasma concentration after dosing,[4]; week 13,43.85 ± 10.79 µg/L
same,Hematology (overall),"beagle dogs [5]; Week 13, 6 mg kg^-1 per day",- (“-” = No effect)
same,MO%,"beagle dogs [5]; females, after weeks 6, 8 and 10 (p<0.05)",significant increases
same,Hb levels,beagle dogs [5]; week 2,corresponding decrease
same,RBC counts,beagle dogs [5]; week 2,decrease
same,LY%,beagle dogs [5]; [12],decreased
same,NE%,beagle dogs [5]; [12],significantly increased
same,WBC count,beagle dogs [5]; [12],significantly increased
same,RET%,"beagle dogs [5]; week 10, males and females, vs peanut oil control group (p<0.05)",significant increase
same,Clinical chemistry: AST(M),"beagle dogs [6]; Week 13, males, 6 mg kg^-1 per day",↑↑AST(M)
same,serum AST,beagle dogs [6]; [13],significant increases
same,serum CK,beagle dogs [6]; [13],significant increases
same,serum albumin levels,"beagle dogs [6]; weeks 4 and 10, same changes also in peanut oil only group",significant decrease
same,Effect (toxicology),Rats [7],"Damage of trapezoid nuclei, abnormalities in balance and coordination"
same,behavioral changes,beagle dogs [8]; 6 mg kg^-1 per day i.m. for 13 weeks,not observed
same,main clinical signs,"beagle dogs [8]; 6 mg kg^-1 per day i.m., after treatment for 4 weeks up to the end of the recovery period",skin thickening at the injection site and myonecrosis-like features
same,"absolute or relative weights of brain, heart, liver, spleen, lungs, kidneys, adrenals, thyroid/parathyroids, pancreas, ovaries, testes or prostate","beagle dogs [9]; 6 mg kg^-1 per day, vs relative controls",no statistically significant effects
same,thymus weight,"beagle dogs [9]; weeks 4 and 8, one of the two male dogs, i.m.",mild decrease
same,Effect (toxicology),Mouse,Balance/gait disturbances and mortality

# Source: paper PMC3989207, “Subchronic Toxicological Study of Two Artemisinin Derivatives in Dogs” (PLoS ONE, 2014)
